According to US9149038B2, “4-amino-6-(heterocyclic)picolinates and 6-amino-2-(heterocyclic)pyrimidine-4-carboxylates and their use as herbicides” (Dow AgroSciences LLC, priority 2013, dated 2015):
Like-named read-outs stand apart in the source and are kept apart here.

Legend:
[1] = tested on: Key Grass and Sedge Weeds as well as Grass Crops; test: Post-Emergent Test II: postemergent herbicidal activity, visual rating after 14 d (Table 8); type: in vivo; conditions: post-emergence, 336 h; for pest or weed control at 35 g/ha: 35 g ai/ha; for pest or weed control at 70 g/ha: 70 g ai/ha; for pest or weed control at 140 g/ha: 140 g ai/ha
Procedure, shortened: (§1)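 Greenhouse plants at first or second true leaf stage sprayed with compound in acetone/DMSO-based spray solution with crop oil concentrate and Triton X-155 at 187 L/ha, tested at highest rate and ½× to 1/16× dilutions; solvent blank controls. Injury rated visually 0–100% versus untreated plants after 14 d.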

[2] = tested on: Key Broadleaf Weed and Crop Species; test: Post-Emergent Test II: postemergent herbicidal activity, visual rating after 14 d (Table 7); type: in vivo; conditions: post-emergence, 336 h; for pest or weed control at 35 g/ha: 35 g ai/ha; for pest or weed control at 70 g/ha: 70 g ai/ha; for pest or weed control at 140 g/ha: 140 g ai/ha
Procedure, shortened: as §1

[3] = barnyardgrass (Echinochloa crus-galli), read-out: Visual Growth Reduction (%) 14 Days After Application ECHCG
[4] = giant foxtail (Setaria faberi), read-out: Visual Growth Reduction (%) 14 Days After Application SETFA
[5] = maize, corn (Zea mays), read-out: Visual Growth Reduction (%) 14 Days After Application ZEAMX
[6] = rice (Oryza sativa), read-out: Visual Growth Reduction (%) 14 Days After Application ORYSA
[7] = wheat, spring (Triticum aestivum), read-out: Visual Growth Reduction (%) 14 Days After Application TRZAS
[8] = yellow nutsedge (Cyperus esculentus), read-out: Visual Growth Reduction (%) 14 Days After Application CYPES
[9] = lambsquarters (Chenopodium album), read-out: Visual Growth Reduction (%) 14 Days After Application CHEAL
[10] = oilseed rape, canola (Brassica napus), read-out: Visual Growth Reduction (%) 14 Days After Application BRSNN
[11] = redroot pigweed (Amaranthus retroflexus), read-out: Visual Growth Reduction (%) 14 Days After Application AMARE
[12] = sunflower (Helianthus annuus), read-out: Visual Growth Reduction (%) 14 Days After Application HELAN
[13] = velvetleaf (Abutilon theophrasti), read-out: Visual Growth Reduction (%) 14 Days After Application ABUTH
[14] = wild poinsettia (Euphorbia heterophylla), read-out: Visual Growth Reduction (%) 14 Days After Application EPHHL

Structure (SMILES)	pest or weed control at 35 g/ha [1, 3] [%]	pest or weed control at 70 g/ha [1, 3] [%]	pest or weed control at 140 g/ha [1, 3] [%]	pest or weed control at 35 g/ha [1, 4] [%]	pest or weed control at 70 g/ha [1, 4] [%]	pest or weed control at 140 g/ha [1, 4] [%]	pest or weed control at 35 g/ha [1, 5] [%]	pest or weed control at 70 g/ha [1, 5] [%]	pest or weed control at 140 g/ha [1, 5] [%]	pest or weed control at 35 g/ha [1, 6] [%]	pest or weed control at 70 g/ha [1, 6] [%]	pest or weed control at 140 g/ha [1, 6] [%]	pest or weed control at 35 g/ha [1, 7] [%]	pest or weed control at 70 g/ha [1, 7] [%]	pest or weed control at 140 g/ha [1, 7] [%]	pest or weed control at 35 g/ha [1, 8] [%]	pest or weed control at 70 g/ha [1, 8] [%]	pest or weed control at 140 g/ha [1, 8] [%]	pest or weed control at 35 g/ha [2, 9] [%]	pest or weed control at 70 g/ha [2, 9] [%]	other results
Nc1c(F)c(-c2ccc(Br)c3c2OC(F)(F)O3)nc(C(=O)O)c1Cl [Compound 80]	0 to 29	0 to 29	0 to 29	0 to 29	0 to 29	0 to 29	45 to 59	60 to 74	60 to 74	0 to 29	0 to 29	0 to 29	0 to 29	0 to 29	0 to 29	0 to 29	0 to 29	0 to 29	95 to 100	95 to 100	pest or weed control at 140 g/ha [2, 9]: 95 to 100%; pest or weed control at 35 g/ha [2, 10]: 85 to 94%; pest or weed control at 70 g/ha [2, 10]: 85 to 94%; pest or weed control at 140 g/ha [2, 10]: 85 to 94%; pest or weed control at 35 g/ha [2, 11]: 95 to 100%; pest or weed control at 70 g/ha [2, 11]: 95 to 100%; pest or weed control at 140 g/ha [2, 11]: 95 to 100%; pest or weed control at 35 g/ha [2, 12]: 85 to 94%; pest or weed control at 70 g/ha [2, 12]: 85 to 94%; pest or weed control at 140 g/ha [2, 12]: 85 to 94%; pest or weed control at 35 g/ha [2, 13]: 60 to 74%; pest or weed control at 70 g/ha [2, 13]: 75 to 84%; pest or weed control at 140 g/ha [2, 13]: 85 to 94%; pest or weed control at 35 g/ha [2, 14]: 0 to 29%; pest or weed control at 70 g/ha [2, 14]: 0 to 29%; pest or weed control at 140 g/ha [2, 14]: 0 to 29%
Nc1nc(-c2cc3c(cc2F)OC(F)(F)O3)nc(C(=O)O)c1Cl [Compound 57]	85 to 94	95 to 100	95 to 100	45 to 59	0 to 29	45 to 59	0 to 29	30 to 44	45 to 59	0 to 29	0 to 29	0 to 29	0 to 29	0 to 29	30 to 44	0 to 29	0 to 29	0 to 29	0 to 29	0 to 29	pest or weed control at 140 g/ha [2, 9]: 0 to 29%; pest or weed control at 35 g/ha [2, 10]: 0 to 29%; pest or weed control at 70 g/ha [2, 10]: 0 to 29%; pest or weed control at 140 g/ha [2, 10]: 0 to 29%; pest or weed control at 35 g/ha [2, 11]: 0 to 29%; pest or weed control at 70 g/ha [2, 11]: 0 to 29%; pest or weed control at 140 g/ha [2, 11]: 85 to 94%; pest or weed control at 35 g/ha [2, 12]: 45 to 59%; pest or weed control at 70 g/ha [2, 12]: 85 to 94%; pest or weed control at 140 g/ha [2, 12]: 95 to 100%; pest or weed control at 35 g/ha [2, 13]: 0 to 29%; pest or weed control at 70 g/ha [2, 13]: 0 to 29%; pest or weed control at 140 g/ha [2, 13]: 0 to 29%; pest or weed control at 35 g/ha [2, 14]: 0 to 29%; pest or weed control at 70 g/ha [2, 14]: 60 to 74%; pest or weed control at 140 g/ha [2, 14]: 95 to 100%
COC(=O)c1nc(-c2cc3c(cc2Cl)OC(F)(F)O3)c(F)c(N)c1Cl [Compound 12]	0 to 29	0 to 29	0 to 29	0 to 29	0 to 29	0 to 29	0 to 29	0 to 29	0 to 29	0 to 29	0 to 29	0 to 29	0 to 29	0 to 29	0 to 29	0 to 29	0 to 29	0 to 29	0 to 29	0 to 29	pest or weed control at 140 g/ha [2, 9]: 0 to 29%; pest or weed control at 35 g/ha [2, 10]: 0 to 29%; pest or weed control at 70 g/ha [2, 10]: 0 to 29%; pest or weed control at 140 g/ha [2, 10]: 0 to 29%; pest or weed control at 35 g/ha [2, 11]: 0 to 29%; pest or weed control at 70 g/ha [2, 11]: 0 to 29%; pest or weed control at 140 g/ha [2, 11]: 0 to 29%; pest or weed control at 35 g/ha [2, 12]: 0 to 29%; pest or weed control at 70 g/ha [2, 12]: 0 to 29%; pest or weed control at 140 g/ha [2, 12]: 0 to 29%; pest or weed control at 35 g/ha [2, 13]: 0 to 29%; pest or weed control at 70 g/ha [2, 13]: 0 to 29%; pest or weed control at 140 g/ha [2, 13]: 60 to 74%; pest or weed control at 35 g/ha [2, 14]: 0 to 29%; pest or weed control at 70 g/ha [2, 14]: 0 to 29%; pest or weed control at 140 g/ha [2, 14]: 0 to 29%
